Experimental findings from ChEMBL document CHEMBL4808233, “Discovery and evaluation of non-basic small molecule modulators of the atypical chemokine receptor CXCR7” (Bioorg Med Chem Lett, 2021) are described below.

SMILES strings stand for the structures.

A short description of series [1]: Lipophilicity, logD of the compound at pH 7.4 by shake flask method. It counts as physicochemical. The conditions noted are these: buffer.
A short description of series [2]: Tmax in C57BL6 mouse at 10 mg/kg, po. The class given is ADME, organism-based. The conditions noted are these: in vivo.
Series [3] in a line: Tmax in C57BL6 mouse at 5 mg/kg, sc. The class given is ADME, organism-based. The conditions noted are these: in vivo.
The nature of series [4]: Cmax in C57BL6 mouse at 10 mg/kg, po. It counts as ADME, organism-based. Also noted: route oral, dose 10 mg/kg. As to conditions: in vivo.
The nature of series [5]: Cmax in C57BL6 mouse at 5 mg/kg, sc. The class given is ADME, organism-based. Also noted: route subcutaneous, dose 5 mg/kg. As to conditions: in vivo.
Series [6] can be described thus: AUC infinity in C57BL6 mouse at 2 mg/kg, iv. It counts as ADME, organism-based. More on the design: time infinity, route intravenous, dose 2 mg/kg. The conditions noted are these: in vivo.
Series [7] is described as follows: AUC infinity in C57BL6 mouse at 10 mg/kg, po. The class given is ADME, organism-based. Also noted: route oral, time infinity, dose 10 mg/kg. As to conditions: in vivo.
A short description of series [8]: AUC infinity in C57BL6 mouse at 2 mg/kg, sc. It counts as ADME, organism-based. As to conditions: in vivo. More on the design: time infinity, route subcutaneous, dose 2 mg/kg.
Series [9] can be described thus: Half life in C57BL6 mouse at 2 mg/kg, iv. The class given is ADME, organism-based. As to conditions: in vivo.
For series [10], the target named is Atypical chemokine receptor 3 (Mus musculus, UniProt P56485). The series can be described thus: Binding affinity to mouse CXCR7.
The nature of series [11]: Half life in C57BL6 mouse at 10 mg/kg, po. The class given is ADME, organism-based. The conditions noted are these: in vivo.
Series [12] can be described thus: Half life in C57BL6 mouse at 5 mg/kg, sc. The conditions noted are these: in vivo. It counts as ADME, organism-based.
Series [13] is described as follows: Volume of distribution at steady state in C57BL6 mouse at 2 mg/kg, iv. It counts as ADME, organism-based. The conditions noted are these: in vivo, read-out: Vdss.
The nature of series [14]: Oral bioavailability in C57BL6 mouse at 10 mg/kg. The class given is ADME, organism-based. As to conditions: in vivo.
A short description of series [15]: Bioavailability in C57BL6 mouse at 5 mg/kg, sc. It counts as ADME, organism-based. The conditions noted are these: in vivo.
A short description of series [16]: Protein binding in C57BL6 mouse plasma assessed as unbound fraction. The class given is ADME, cell-free.
Series [17] in a line: Unbound cmax in C57BL6 mouse. The class given is ADME. As to conditions: in vivo.

For orientation: logD means the decadic logarithm of the distribution of all forms, ionised or not, between an organic phase and buffer at a given pH. Low values mean a more hydrophilic compound, high ones a more lipophilic compound. A word on the Tmax: it is the time at which the peak concentration occurs. The Cmax is the maximum level reached in the sampled fluid or tissue. Broadly, the AUC(0-inf) is total exposure, with the tail of the curve extrapolated. In general, half-life refers to the time in which the quantity being followed falls by half. High values mean slow loss, low ones fast loss. The Ki is the equilibrium dissociation constant of an inhibitor or competing ligand from its target. Low values mean higher affinity, high ones lower affinity. For orientation: bioavailability means dose-corrected exposure relative to a reference, in per cent. A word on the fraction unbound: it is the share of the substance not bound to proteins or other matrix.

Sequence of Atypical chemokine receptor 3 (P56485 whole entry): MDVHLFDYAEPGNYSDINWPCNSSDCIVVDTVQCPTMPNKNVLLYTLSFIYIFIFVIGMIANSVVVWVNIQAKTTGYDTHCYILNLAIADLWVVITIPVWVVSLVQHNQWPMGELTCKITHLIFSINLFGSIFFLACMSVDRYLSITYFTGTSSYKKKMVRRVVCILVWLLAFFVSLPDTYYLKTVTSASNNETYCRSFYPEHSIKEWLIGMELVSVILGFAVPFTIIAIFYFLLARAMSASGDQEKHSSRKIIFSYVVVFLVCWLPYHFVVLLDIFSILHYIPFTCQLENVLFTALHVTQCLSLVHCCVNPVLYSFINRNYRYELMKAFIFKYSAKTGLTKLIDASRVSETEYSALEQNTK

For `COc1ccc2cccnc2c1N1CCCN(Cc2csc(-c3ccccc3)n2)CC1`, the logD in [1] is 3.4.
Still for that read-out and setting: the same measure for `CCc1ccn2ccnc2c1N1CCCN(CC2CCN(C(=O)[C@H]3C[C@@H]4CC[C@H]3O4)CC2)CC1`: 0.7.
As for `CCN(C)C(=O)N1C[C@@H]2[C@H](C1)[C@H]2C(=O)N[C@H]1CCN(c2nccn3ccnc23)C1`, the Tmax is 4.8 min in series [2] and 15 min in series [3]. In addition, the Cmax in series [4] came to 185 ng/mL; in [5], 1550 ng/mL. Moreover, the total exposure AUC(0-inf) in [6] was determined as 864 ng·h/mL; in series [7], 199 ng·h/mL; in series [8], 1530 ng·h/mL. In addition, the half-life in series [9] is 12 min; in [11] it was 78 min; in [12], 30 min. The affinity in [10] corresponds to a Ki of 155 nM. The Vd in [13] was determined as 0.3 L/kg. Further, the results for the bioavailability in series [14] and in series [15] were 5% and 71%, respectively. Further, the fraction unbound in series [16] was 0.4. The compound further displayed a fCmax in series [17] of 1.56 µM.
